The values that follow come from US9763961B2, “Compositions that modulate the activity of estrogen receptors and estrogen-related receptors and methods for use” (CITY OF HOPE, priority 2005, dated 2017).

Format in all cases: cell-based
Test [1] relates to ERRα with coactivators GRIP-1 and PGC-1a. As to the kind of experiment: Coactivator (GRIP-1, PGC-1a)-induced ERRα activity, Gal4-TK-Luc cotransfection in HeLa cells. Conditions: GRIP-1 and PGC-1a cotransfection, FIG. 3. From the text: To further confirm the antagonism of chalcones, the effect of Compound No. 1-9 on the interaction between ERRα and coactivators (GRIP-1 and PGC-1a) were investigated. HeLa cells were cotransfected with GAL4-binding site containing luciferase reporter and the expression plasmids for ERRα, GRIP-1 and PGC-1a. The ERRα activity was induced 5-fold and 13-fold by cotransfection with GRIP-1 and PGC-1 a, respectively.
Referring to FIG. 3, cotransfection experiments with GAL4-binding site containing luciferase reporter (Gal4-TK-Luc; 0.5 μg) and the expression plasmids for ERRα (pM-ERRα LBD; 0.5 μg), GRIP-1 (pSG5-GRIP-1; 0.5 μg) and PGC-1a(pSG5-PGC-1α; 0.25 μg) were performed in HeLa cells. Values represent the mean±SD.

Test [2] relates to promoter I.3 of human aromatase gene (through ERRα). Briefly: Aromatase promoter I.3 luciferase reporter with pSG5-ERRα in HepG2 cells. Particulars: 24 h, FIG. 5. On the procedure:
Aromatase expression is regulated by several promoters, including ERRα modulating promoter I.3. In order to evaluate the effect of chalcones on aromatase activity through ERRα, transient transfection experiments using luciferase reporter plasmid containing a regulatory element S1 and promoter I.3 of human aromatase gene were performed in HepG2 cells. The transfected cells were incubated with chalcones, and luciferase activity was measured.
Referring to FIG. 5, HepG2 cells were cotransfected with pSG5-ERRα (2 μg) and luciferase reporter plasmid containing S1 and promoter I.3 of human aromatase gene (0.5 μg). The transfected cells were incubated with Compound No. 1-9 for 24 h. After cells were washed with 1× PBS, luciferase activity was measured. Values represent the mean±SD.

The test system of another test is aromatase in HepG2 cells. As to the kind of experiment: In-cell aromatase assay in HepG2 cells. Conditions: 24 h, FIG. 6C. On the procedure: (§1) To evaluate the effect of chalcones on aromatase activity, we performed both in vitro assay and in-cell assay with chalcones. […] In addition, MCF-7 aro cells, which are stable aromatase-expressing breast cancer cell line, were incubated with chalcones.
(§2) Referring to FIG. 6, the effect of Compound No. 1-9 on aromatase activity was investigated by both in vitro inhibition assay (A) and in-cell aromatase assay (B; MCF-7 aro cells, C; HepG2 cells, D; SK-BR-3 cells). Referring to FIG. 6A, aromatase inhibition study with Compound No. 1-9 was performed on a human placental microsomal aromatase preparation using the assay procedures described in (9). Referring to FIG. 6B, MCF-7 aro cells, which are stable aromatase-expressing cell line generated in our laboratory (10), were incubated with 10 μM of Compound No. 1-9. After 24 h incubation, aromatase activity was measured by [3H] H20 release method. HepG2 cells, as shown in FIG. 6C and SK-BR-3 cells as shown in FIG. 6D were also incubated with Compound No. 1-9 for 24 h, and aromatase activities were measured. Values represent the mean±SD.

Test [3] concerns aromatase in SK-BR-3 cells. Briefly: In-cell aromatase assay in SK-BR-3 cells. Particulars: 24 h, FIG. 6D. On the procedure: as §1, §2
Another test deals with T1, ERRα (Homo sapiens, UniProt P11474).
T1 sequence (P11474 1-423): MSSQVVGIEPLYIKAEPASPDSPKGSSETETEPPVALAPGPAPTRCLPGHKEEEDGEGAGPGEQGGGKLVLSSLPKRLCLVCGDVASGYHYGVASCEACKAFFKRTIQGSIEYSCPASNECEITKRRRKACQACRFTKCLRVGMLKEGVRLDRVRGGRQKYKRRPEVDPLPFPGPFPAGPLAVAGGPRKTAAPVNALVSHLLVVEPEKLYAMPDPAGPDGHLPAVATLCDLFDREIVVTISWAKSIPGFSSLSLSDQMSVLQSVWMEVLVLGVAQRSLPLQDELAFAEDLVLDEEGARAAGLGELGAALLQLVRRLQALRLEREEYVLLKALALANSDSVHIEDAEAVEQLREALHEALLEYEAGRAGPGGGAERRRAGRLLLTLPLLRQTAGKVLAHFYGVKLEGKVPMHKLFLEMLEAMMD
Briefly: Transient transfection assays, relative luciferase activity for ERRα (FIG. 7). The method, then:
HeLa cells were cultured in MEM Earle's salts medium supplemented with 5% charcoal/dextran-treated fetal bovine serum. Cells were then divided and cultured in 6-well plates until 80% confluence was achieved. The cells were next transfected with 4 μg Lipofectin. An equal amount of total DNA was used in all transfections by including appropriate amounts of the empty vector, pSG5, in addition to specific amounts of pSG5-ERRα and luciferase reporter plasmids (ERRE (ERRα recognizes an ERE half site)-containing reporter and aromatase promoter I.3-containing reporter). Following an overnight incubation, the medium containing Lipofectin and DNA was removed, and the cells cultured in a growth medium containing 5% charcoal/dextran-treated fetal bovine serum with or without ligands. After a 24-hour incubation, the cells was harvested from the plates by scraping, and the luciferase activities in the cell lysates (with the same amounts of protein) was measured according to the manufacturer's instructions (Promega). All experiments were performed in triplicate.
Referring to FIG. 2, we have also prepared GAL4-ERRα expression plasmid and luciferase reporter plasmids with GAL4 response element. This is a more sensitive assay method than that using pSG5-ERRα and ERE luciferase reporter plasmids.
The 2-methoxyl group may be important for the antagonistic activity of the chalcone. […]

As for `COc1cccc(/C=C/C(=O)c2ccc(O)cc2O)c1OC` [Compound No. 1-9, 2′,4′-Dihydroxy-2,3-dimethoxychalcone], the “Effect on coactivator-induced ERRα activity” value in test [1] was “suppressed the coactivator-induced ERRα activity in a dose-dependent manner”. Besides, in test [2], the “Effect on promoter I.3 activity” value is “suppressed the promoter I.3 activity in a dose-dependent manner”. Besides, the “Effect on aromatase activity, HepG2 cells” value in the test on aromatase in HepG2 cells is “inhibited aromatase activity in a dose-dependent manner”. The “Effect on aromatase activity, SK-BR-3 cells” value in test [3] was “inhibited aromatase activity in a dose-dependent manner”. At ERRα (compared to DMSO control, FIG. 7), the “Effect on constitutive activity of ERRα (relative luciferase activity)” value is on record as “can suppress the constitutive activity of ERRα”. The IC50 at ERRα (read-out: IC50 values through transient transfection assays) was in the range of 0.7 to 2 µM.
